Consider one compound from US11655239B2 (SHANGHAI INSTITUTE OF MATERIAL MEDICA, CHINESE ACADEMY OF …, priority 2019, dated 2023).

In experiment [1] the test system is pulmonary fibrosis induced by bleomycin in mice. Put plainly: Active TGF-β1 in BALF (ELISA). Type of experiment: in vivo, mouse. The conditions noted are these: 90 mg/kg; reduced from 123 pg/ml in BLM group. As for the experimental part: The expression level of active TGF-β1 in BALF was detected by using the TGF-β1 ELISA detection kit (Shanghai Wuhao Bio-Tech Co., Ltd). The steps are as follows:
1) 10 standard wells were set on the enzyme coated plate. After the standard was diluted, the volume in each well was 50 μl, and the concentration was 1800 ng/L, 1200 ng/L, 600 ng/L, 300 ng/L, 150 ng/L, respectively. The concentration was the same every two tubes.
2) Sample addition: a blank well (no sample and enzyme reagent) and a well for the sample to be tested were set, respectively. 40 μl of sample dilution solution was added to the well for the sample to be tested on the enzyme coated plate, and then 10 μl of the sample to be tested was added.
3) Incubation: the sample to be tested was sealed with a sealing film and then incubated at 37° C. for 30 minutes.
4) Solution preparation: the concentrated washing liquid (30 times (20 times of 48T)) was diluted 30 times (20 times of 48T) with distilled water for use.
5) Wash: the liquid was discarded and spun dry. Each well was filled with the washing liquid. After standing for 30 seconds, the washing liquid was discarded. This was repeated 5 times and pat dry. […]
10) Determination: zero setting was performed using a blank well within 15 minutes after the reaction was stopped, and the absorbance (OD value) of each well was measured in sequence at a wavelength of 450 nm.

Experiment [2] has as its system mouse model of BLM-induced lung injury. The experiment is described as follows: Histopathological evaluation of lung sections, H&E staining. The conditions noted are these: Effect example 4; mice; S15 30, 60, 90 mg/kg, Nintedanib 30 mg/kg, oral qd 12 days. Type of experiment: in vivo. As for the experimental part: Experimental objective: This group of experiments aimed to investigate the therapeutic potential of the compound S15 in acute lung injury and inflammation induced by bleomycin (BLM).
Experimental grouping (8 mice per group):
Model group (BLM): the mice received BLM (1.7 U/kg) via intratracheal instillation;
Compound S15 group (S15): this group was divided into three dose groups, namely 30, 60 and 90 mg/kg;
Positive control group (Nintedanib): Nintedanib administration group;
Negative control group (Control): only saline was used.
1) Material acquisition: The fresh tissue was fixed in 4% paraformaldehyde for more than 24 hours. The tissue was removed from the fixative solution and trim the tissue at the target site. The trimmed tissue was marked and placed in the dehydration box for later use.
2) Dehydration: The dehydration box was put in the dehydrator and different concentration gradients of ethanol was used sequentially for dehydration. 75% ethanol (4 hours), 85% ethanol (2 hours), 90% ethanol (2 hours), 95% ethanol (1 hour), absolute ethanol I (30 minutes), absolute ethanol II (30 minutes), alcohol benzene (5-10 minutes), xylene I (5-10 minutes), xylene II (5-10 minutes), wax I (1 hour), wax II (1 hour), wax III (1 hour).
3) Embedment: The wax melted at high temperature was put into the embedding frame; before the wax was cooled and solidified, the tissue was taken out of the dehydration box, put into the embedding frame according to the requirements of the embedding surface, marked and cooled at −20° C. After completely solidified, the wax block was removed from the embedding frame and trimmed.
4) Section: The trimmed wax block was put on a paraffin microtome for sectioning. The section thickness was about 4 μm. The sections were floated on warm water at 40° C. of the flotation workstation and flatten. A glass slide was used to lift the tissue from the warm water, and put into a 60° C. oven for dryness. After the water was dried and the wax melted, the glass slide was taken out and stored at ambient temperature for later use. […]

On to `O=C(Nc1cccc(C(F)(F)F)c1)c1ccc(C2CC2)c(-c2ccc3nc(Nc4cnn(C5CC5)c4)ncc3c2)c1` [Compound S15, 4-cyclopropyl-3-(2-((1-cyclopropyl-1H-pyrazol-4-yl)amino)quinazolin-6-yl)-N-(3-(trifluoromethyl)phenyl)benzamide], for which the “active TGF-β1 in BALF” value in experiment [1] was determined as 48 pg/mL. Also, the “BLM-induced lung injury, H&E staining” value in experiment [2] was “improved significantly”.
